Test results taken from patent US10280156B2, “Heteroaromatic chalcone derivatives and their medical use” (Medizinische Universität Wien, priority 2014, dated 2019).
Several values for one entry are separate records, joined by “and”; a condition that tells them apart may be missing. Identical values can stand only once.

Assays:
U-2940 = experiment: Viability test on U-2940 cells, 48 h; format: cell-based, human; details: 48 h incubation; nd = no significant cytotoxic activity up to 100 μM
Procedure: (§1) JURKAT and CCRF-CEM (T-cell acute lymphoblastic leukemia), HL60 and K562 representing acute and chronic myeloid leukemia, respectively, the chronic lymphocytic leukemia cell line MEC-1, and the diffuse large B-cell lymphoma cell line U-2940 were cultured in Gibco RPMI 1640+GlutaMAX (Life Technologies, Carlsbad, Calif., USA) supplemented with 10% fetal bovine serum gold (FBS gold; PAA Laboratories, Pasching, Austria) and 1% PenStrep (100 U/ml penicillin and 100 μg/ml streptomycin; PAA Laboratories), and maintained at 37° C. in humidified atmosphere with 5% CO2. The diffuse large B-cell lymphoma cell line OCI-LY7 was cultured in Gibco IMDM+GlutaMAX and 25 mM HEPES (Life Technologies) containing 20% FBS gold and 1% PenStrep.
(§2) All experiments with hematological cell lines were done using phenol red-free RPMI 1640+L-glutamine (PAA Laboratories) supplemented with 1% PenStrep and 10% FBS gold, except experiments with OCI-Ly7 which were carried out in Gibco IMEM+GlutaMAX and 25 mM HEPES containing 20% FBS gold and 1% PenStrep. Cells were incubated in triplicates with increasing concentrations of the compounds for 48 h, changes in viability were determined using the cell proliferation and cytotoxicity assays EZ4U (Biomedica Group, Austria) and CellTiter-Blue Cell Viability Assay (Promega, Madison, Wis., USA) following instructions of the manufacturers. IC50 values were calculated from two independent experiments using GraphPad Prism 5 software.
(§3) Initially, compounds were biologically tested in six concentration steps (0.1 μM; 1 μM; 5 μM; 10 μM; 50 μM; and 100 μM) using the CellTiter-Blue Cell Viability Assay (Promega, Madison, Wis., USA) and an incubation time of 48 hours. […] IC50 values were calculated from at least two independent experiments with 3 replicates each. In order to evaluate the biologic activity of the new compounds, cytotoxicity was compared to that of fludarabine, an already approved drug for the treatment of various B-cell malignancies. […] Differences in IC50 values for the different cell types can be explained by the biological and genetic particularities of each subtype of B-cell Non-Hodgkin lymphoma (Stacchini A et al. Leukemia Res 1999, 23, 127-136; Sambade C et al. Int J Cancer 2006, 118, 555-563; Chang H et al. Leukemia lymphoma 1995, 19, 165-171; Tweeddale M E et al. Blood 1987, 69, 1307-1314; Tweeddale M et al. Blood 1989, 74, 572-578).

OCI-Ly7 = experiment: Viability test on OCI-Ly7 cells, 48 h; format: cell-based, human; details: 48 h incubation; nd = no significant cytotoxic activity up to 100 μM
Procedure: as §1, §2, §3

CCRF = experiment: Viability test on CCRF cells; format: cell-based, human
Procedure: as §1, with “The diffuse large B-cell lymphoma cell line OCI-LY7 was cultured in Gibco IMDM+GlutaMAX and 25 mM HEPES (Life Technologies) containing 20% FBS gold and 1% PenStrep.” left out
as §2, with “software. […]” for “software.”

K562 = experiment: Viability test on K562 cells; format: cell-based, human; details: already at low concentrations, no further increase of toxicity at increasing concentrations
Procedure: as §1, with “The diffuse large B-cell lymphoma cell line OCI-LY7 was cultured in Gibco IMDM+GlutaMAX and 25 mM HEPES (Life Technologies) containing 20% FBS gold and 1% PenStrep.” left out
as §2, with “software. […]” for “software.”

SU-DHL6 = experiment: Viability test on SU-DHL6 cells; format: cell-based, human
Procedure: as §2
Hematologic malignancies are highly heterogeneous in their biology and behavior. This and the fact that some patient groups are resistant to therapy underlines the urgent need for new therapeutic drugs. Compound 15 has therefore been tested on other cell lines representing a variety of hematologic neoplasms: two T-cell acute leukemia cell lines (CCRF, Jurkat), two myeloid leukemia cell lines (HL60, K562), and two additional B-cell lines (SU-DHL6, SU-DHL9). Viability was assessed as described in the methods section above. […] An exception was the chronic myeloid leukemia line K562. […]

[1] = test system: primary cells from CLL patients; experiment: Combination treatment of CLL primary cells with compound 15 and a further anticancer agent; format: cell-based, human
Procedure: Peripheral blood mononuclear cells (PBMCs) of CLL patients were incubated in increasing concentrations of one of the above-mentioned anticancer agents alone or increasing anticancer agent concentrations plus compound 15 in two different concentrations under standard conditions for 48 h before viability was determined (CellTiterBlue, Promega). Primary cells from 5 (ABT199) or 6 patients (CAL101, PCI32765) were included.

Question: With CCOc1ccccc1C(=O)/C=C/c1cc2ccccc2[nH]1 [Compound 15, 1-(2-Ethoxyphenyl)-3-(1H-indole-2-yl)-2-propen-1-one] as the compound, how does the IC50 (U-2940) read?
Answer: Its IC50 is 50 nM and 52 nM.

Question: What about the IC50 (OCI-Ly7) of the same compound?
Answer: Its IC50 is 2900 nM.

Question: What about the “viability, % of control” value (CCRF; CCRF, at concentrations <1 μM) of the same compound?
Answer: The value was “less than 30 % of control”.

Question: And the IC50 (CCRF; Homo sapiens, T-cell acute leukemia, nd = no significant cytotoxic activity up to 100 μM)?
Answer: The IC50 was 30 nM.

Question: And the “viability reduced down to” value (K562)?
Answer: The value was 60%.

Question: And the IC50 (SU-DHL6; Homo sapiens, SU-DHL-6, B-cell lymphoma, nd = no significant cytotoxic activity up to 100 μM)?
Answer: Its IC50 is 60 nM.

Question: And the “viability, % of control” value (SU-DHL6; SU-DHL6, at concentrations <1 μM)?
Answer: The value was “less than 30 % of control”.

Question: What about the “effect of adding compound 15 to ABT199 on cytotoxicity” value ([1]; combination with ABT199, N=5, 48 h) of the same compound?
Answer: Its value is “synergistic effect”.

Question: And the “effect of adding compound 15 to CAL101 on cytotoxicity” value ([1]; combination with CAL101 (idelalisib), N=6, 48 h)?
Answer: The value was “synergistic effect”.

Question: What about the “effect of adding compound 15 to PCI32765 on cytotoxicity” value ([1]; combination with PCI32765 (ibrutinib), N=6, 48 h) of the same compound?
Answer: The value was “synergistic effect”.

Question: What about the melting point of the same compound?
Answer: The melting point was 124 to 126 °C.
